# Measurements from paper PMC9068610, “Biliverdin regulates NR2E3 and zebrafish retinal photoreceptor development” (Scientific Reports, 2022).
# Changes are numbered by the printed parent chain.
# What was measured:
# Assay type in all cases: binding
# NR2E3 [1] = target: T1, NR2E3 (Homo sapiens, UniProt Q9Y5X4, R311Q); assay: visible absorbance titration
# T1 construct: MBP-NR2E3 LBD R311Q variant
# T1 sequence (Q9Y5X4 164-410 R311Q): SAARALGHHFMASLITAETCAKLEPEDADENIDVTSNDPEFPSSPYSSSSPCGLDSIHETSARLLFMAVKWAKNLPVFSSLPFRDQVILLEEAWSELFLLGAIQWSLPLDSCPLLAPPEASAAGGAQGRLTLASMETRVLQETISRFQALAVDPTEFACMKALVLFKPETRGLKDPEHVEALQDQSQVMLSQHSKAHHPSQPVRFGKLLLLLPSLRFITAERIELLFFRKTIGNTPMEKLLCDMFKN
# NR2E3 [2] = target: T2, NR2E3 (Homo sapiens, UniProt Q9Y5X4); assay: visible absorbance titration; also gel filtration co-purification with LC-MS
# T2 construct: MBP-NR2E3 LBD (amino acid residues 164–410 of 410 residue NR2E3)
# T2 sequence (Q9Y5X4 164-410): T1 sequence (Q9Y5X4 164-410 R311Q) with Q148R
# zebrafish NR2E3 = target: T3, zebrafish NR2E3 (Danio rerio, UniProt Q5U3F3); assay: visible absorbance titration
# T3 construct: MBP-DrNR2E3 LBD
# T3 sequence (Q5U3F3 178-419 limits assumed): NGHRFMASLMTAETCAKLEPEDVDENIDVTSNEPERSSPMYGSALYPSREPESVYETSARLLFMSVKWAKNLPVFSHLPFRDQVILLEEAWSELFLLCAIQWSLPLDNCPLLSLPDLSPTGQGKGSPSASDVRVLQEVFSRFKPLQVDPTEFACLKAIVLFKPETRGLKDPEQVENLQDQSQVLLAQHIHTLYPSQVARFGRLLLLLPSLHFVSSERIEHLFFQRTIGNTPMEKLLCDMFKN
smiles,measurement,setting,value
C=CC1=C(C)/C(=C/C2=NC(=C\c3[nH]c(/C=C4\NC(=O)C(C)=C4C=C)c(C)c3CCC(=O)O)/C(CCC(=O)O)=C2C)NC1=O [biliverdin],Kd,NR2E3 [1],9 µM
same,Kd,NR2E3 [2],0.2 µM
same,visible absorbance titration,zebrafish NR2E3,the spectrum of biliverdin showed changes similar to the one observed with human NR2E3^LBD
